Experiments:
[1] = biological target: Human recombinant Acetyl-CoA Carboxylase 2 (ACC2) (Homo sapiens, UniProt O00763); assay: Assay X: ACC2 inhibition, inorganic phosphate (malachite green); type: biochemical; conditions: Assay X: 37° C., 1.5 h, 5 min pre-incubation
Method: (§1) Human recombinant Acetyl-CoA Carboxylase 1 and Acetyl-CoA Carboxylase 2 (ACC1 and ACC2) were assayed by determining the amount of inorganic phosphate (Pi) generated. Pre-incubation of 15 μL enzyme together with 0.75 μL DMSO+/−compound for 5 min was done before the reaction was initiated by the addition of 10 μL substrate. […] After 1.5 h the reaction was stopped by addition of 74 μL of water followed by extensive mixing, split and transfer of 2×40 μL to a read-plate encompassing 30 μL distilled H2O per well (n=2→n=4). Colour reaction was initiated by addition of 30 μL malachite green reagent per well and allowed 15 min before absorbance reading of the plates at 660 nm. The malachite green reagent was prepared by mixing 16.4 mL ammonium molybdate solution (7.5%), 1.64 mL Tween (11%) with 82 mL Malachite Green/H2SO4-solution (0.7 g Malachite Green to 1000 mL of 10% (v/v) H2SO4).
(§2) All compounds were tested in triplicate at 10 different concentrations. Control compound (0, 50 and 100% effect) was included on each plate. […] Curve fitting was done using the following equation: y=(A+((B−A)/(1+((x/C)̂D)))) where A and B represents the curve bottom (% inhibition) and the total amplitude (% inhibition), respectively, whereas C and D are the apparent IC50 and curve slope, respectively.

[2] = biological target: Human recombinant Acetyl-CoA Carboxylase 1 (ACC1) (Homo sapiens, UniProt Q13085); assay: Assay X: ACC1 inhibition, inorganic phosphate (malachite green); type: biochemical; conditions: Assay X: 37° C., 1.5 h, 5 min pre-incubation
Method: as §1, §2

Human recombinant Acetyl-CoA Carboxylase 2 (ACC2), sequence (O00763 whole entry): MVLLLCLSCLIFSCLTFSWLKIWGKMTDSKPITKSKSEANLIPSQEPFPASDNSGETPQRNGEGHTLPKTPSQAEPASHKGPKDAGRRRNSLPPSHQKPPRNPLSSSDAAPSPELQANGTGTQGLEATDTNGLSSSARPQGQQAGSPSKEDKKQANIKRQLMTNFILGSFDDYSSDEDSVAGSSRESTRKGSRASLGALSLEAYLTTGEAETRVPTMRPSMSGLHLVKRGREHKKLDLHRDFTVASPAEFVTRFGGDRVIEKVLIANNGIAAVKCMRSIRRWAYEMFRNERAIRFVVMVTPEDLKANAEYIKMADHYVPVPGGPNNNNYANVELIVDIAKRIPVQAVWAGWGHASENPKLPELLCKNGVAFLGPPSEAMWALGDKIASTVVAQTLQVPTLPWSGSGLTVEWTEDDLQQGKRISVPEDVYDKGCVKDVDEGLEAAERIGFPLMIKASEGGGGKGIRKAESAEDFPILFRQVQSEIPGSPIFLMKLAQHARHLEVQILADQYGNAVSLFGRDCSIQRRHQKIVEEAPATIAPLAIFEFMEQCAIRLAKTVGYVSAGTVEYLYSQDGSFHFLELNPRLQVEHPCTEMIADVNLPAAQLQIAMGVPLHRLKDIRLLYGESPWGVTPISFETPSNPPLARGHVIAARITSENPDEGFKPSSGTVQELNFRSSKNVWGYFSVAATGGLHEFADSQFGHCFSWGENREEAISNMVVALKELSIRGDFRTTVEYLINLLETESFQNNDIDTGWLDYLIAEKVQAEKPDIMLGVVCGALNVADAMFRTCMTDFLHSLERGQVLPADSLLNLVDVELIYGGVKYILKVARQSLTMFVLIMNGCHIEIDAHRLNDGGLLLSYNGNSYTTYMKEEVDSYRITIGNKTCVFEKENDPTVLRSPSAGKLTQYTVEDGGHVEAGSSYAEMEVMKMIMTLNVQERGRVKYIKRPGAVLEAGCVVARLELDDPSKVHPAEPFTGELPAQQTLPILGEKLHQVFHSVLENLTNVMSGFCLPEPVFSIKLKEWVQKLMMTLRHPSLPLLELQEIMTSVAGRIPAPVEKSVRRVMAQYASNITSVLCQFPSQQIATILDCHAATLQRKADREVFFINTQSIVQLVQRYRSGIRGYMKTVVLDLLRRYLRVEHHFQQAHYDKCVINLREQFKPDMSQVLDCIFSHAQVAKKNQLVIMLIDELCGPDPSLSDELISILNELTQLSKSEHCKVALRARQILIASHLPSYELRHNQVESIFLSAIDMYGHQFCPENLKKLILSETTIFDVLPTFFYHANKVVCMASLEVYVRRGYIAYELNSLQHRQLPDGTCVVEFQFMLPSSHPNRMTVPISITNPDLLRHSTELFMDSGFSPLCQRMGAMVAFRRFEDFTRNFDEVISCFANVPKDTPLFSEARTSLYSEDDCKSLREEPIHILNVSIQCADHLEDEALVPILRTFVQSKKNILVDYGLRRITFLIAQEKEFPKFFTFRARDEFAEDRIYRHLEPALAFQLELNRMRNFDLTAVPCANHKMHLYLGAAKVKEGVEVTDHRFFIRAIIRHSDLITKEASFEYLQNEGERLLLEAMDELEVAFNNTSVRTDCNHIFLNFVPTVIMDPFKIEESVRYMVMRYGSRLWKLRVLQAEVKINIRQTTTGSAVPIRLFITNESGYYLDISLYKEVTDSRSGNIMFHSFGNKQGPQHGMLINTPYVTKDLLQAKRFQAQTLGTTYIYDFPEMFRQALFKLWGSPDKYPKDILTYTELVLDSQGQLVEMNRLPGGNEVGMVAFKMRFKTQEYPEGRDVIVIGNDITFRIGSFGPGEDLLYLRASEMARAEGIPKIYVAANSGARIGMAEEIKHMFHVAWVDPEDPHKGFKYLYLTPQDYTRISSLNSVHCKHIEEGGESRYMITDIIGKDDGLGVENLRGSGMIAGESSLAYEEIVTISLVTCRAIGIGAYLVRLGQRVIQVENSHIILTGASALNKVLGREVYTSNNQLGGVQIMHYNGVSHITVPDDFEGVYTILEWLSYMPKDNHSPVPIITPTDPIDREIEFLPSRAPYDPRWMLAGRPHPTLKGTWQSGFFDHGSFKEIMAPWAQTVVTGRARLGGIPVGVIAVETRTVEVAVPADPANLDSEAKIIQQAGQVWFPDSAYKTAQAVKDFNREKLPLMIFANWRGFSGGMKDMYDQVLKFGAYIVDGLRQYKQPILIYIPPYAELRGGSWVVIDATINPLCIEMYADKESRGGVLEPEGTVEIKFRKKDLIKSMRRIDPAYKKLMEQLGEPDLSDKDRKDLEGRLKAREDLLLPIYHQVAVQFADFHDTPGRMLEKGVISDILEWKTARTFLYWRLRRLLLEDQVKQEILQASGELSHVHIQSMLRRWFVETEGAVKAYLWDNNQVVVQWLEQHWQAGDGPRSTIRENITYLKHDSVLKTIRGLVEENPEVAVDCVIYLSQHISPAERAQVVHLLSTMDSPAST

| IC50 [1] | IC50 [2] | Compound |
| --- | --- | --- |
| 370 nM | 880 nM | CC(C)(C)OC(=O)NC[C@H]1CC[C@H](CNC(=O)c2cc(-c3ccc(NCC(O)CO)nc3)nc3ccccc23)CC1 (relative stereo) [Example 162, tert-Butyl{[trans-4-({[(2-{6-[(2,3-dihydroxypropyl)amino]pyridin-3-yl}quinolin-4-yl)carbonyl]amino}-methyl)cyclohexyl]-methyl}carbamate] |
| 140 nM | 290 nM | CC(C)(C)OC(=O)NC[C@H]1CC[C@H](CNC(=O)c2cc(-c3ccc(N4CCOC(CO)C4)nc3)nc3ccccc23)CC1 (relative stereo) [Example 171, tert-Butyl{[trans-4-({[(2-{6-[2-(hydroxymethyl)morpholin-4-yl]-pyridin-3-yl}quinolin-4-yl)carbonyl]amino}-methyl)cyclohexyl]-methyl}carbamate] |
| 1050 nM | 3040 nM | CC(O)C(C)Oc1ccc(-c2cc(C(=O)NC[C@H]3CC[C@H](CNC(=O)OC(C)(C)C)CC3)c3ccccc3n2)cn1 (relative stereo) [Example 176, tert-Butyl[(trans-4-{[({2-[6-(2-hydroxy-1-methylpropoxy)-pyridin-3-yl]-quinolin-4-yl}-carbonyl)amino]-methyl}cyclohexyl)methyl]carbamate] |
| 130 nM | 973 nM | CC(C)(C)OC(=O)NC[C@H]1CC[C@H](CNC(=O)c2cc(N3CCC(CC(O)CN4CCCC4)CC3)nc3ccccc23)CC1 (relative stereo) [Example 206, tert-butyl [(trans-4-{[({2-[4-(2-hydroxy-3-pyrrolidin-1-ylpropyl)piperidin-1-yl]quinolin-4-yl}carbonyl)amino]methyl}cyclohexyl)methyl]carbamate] |
| 130 nM | 1040 nM | CC(C)(C)OC(=O)NC[C@H]1CC[C@H](CNC(=O)c2cc(N3CCC(CC(O)CN4CCOCC4)CC3)nc3ccccc23)CC1 (relative stereo) [Example 207, tert-Butyl[(trans-4-{[({2-[4-(2-hydroxy-3-morpholin-4-ylpropyl)piperidin-1-yl]quinolin-4-yl}-carbonyl)amino]methyl}cyclohexyl)methyl]-carbamate] |
| 160 nM | 1330 nM | CC(C)(C)OC(=O)NC[C@H]1CC[C@H](CNC(=O)c2cc(N3CCC(CCN4CCC(O)C4)CC3)nc3ccccc23)CC1 (relative stereo) [Example 230, tert-Butyl{[trans-4-({[(2-{4-[2-(3-hydroxypyrrolidin-1-yl)ethyl]piperidin-1-yl}quinolin-4-yl)carbonyl]amino}-methyl)cyclohexyl]-methyl}carbamate] |
| 170 nM | 1100 nM | CC(C)(C)OC(=O)NC[C@H]1CC[C@H](CNC(=O)c2cc(N3CCC(CC(O)CN4CCOCC4)CC3)nc3ccccc23)CC1 (single isomer, unassigned) [Example 208, (R) or (S) tert-Butyl [(trans-4-{[({2-[4-(2-hydroxy-3-morpholin-4-ylpropyl)piperidin-1-yl]quinolin-4-yl}-carbonyl)amino]methyl}cyclohexyl)methyl]-carbamate] |
| 110 nM | 780 nM | CC(C)(C)OC(=O)NC[C@H]1CC[C@H](CNC(=O)c2cc(N3CCC(CC(O)CN4CCCC4)CC3)nc3ccccc23)CC1 (single isomer, unassigned) [Example 209, (S) or (R) tert-Butyl [(trans-4-{[({2-[4-(2-hydroxy-3-pyrrolidin-1-ylpropyl)-piperidin-1-yl]quinolin-4-yl}carbonyl)amino]-methyl}cyclohexyl)methyl]carbamate] |
| 1370 nM | 4770 nM | CC(C#N)OC(=O)NC[C@H]1CC[C@H](CNC(=O)c2cc(-c3ccc(N4CCN(C)CC4)nc3)nc3ccccc23)CC1 (stereo partly drawn) [Example 121, 1-Cyanoethyl[(trans-4-{[({2-[6-(4-methylpiperazin-1-yl)pyridin-3-yl]quinolin-4-yl}carbonyl)amino]methyl}cyclohexyl)methyl]carbamate] |
| 1860 nM | 8130 nM | CC(=O)NCCOC(=O)NC[C@H]1CC[C@H](CNC(=O)c2cc(-c3ccc(N4CCN(C)CC4)nc3)nc3ccccc23)CC1 [Example 122, 2-Acetamidoethyl[(trans-4-{[({2-[6-(4-methylpiperazin-1-yl)pyridin-3-yl]quinolin-4-yl}carbonyl)amino]methyl}cyclohexyl)methyl]carbamate] |
| 420 nM | 1670 nM | CN1CCN(c2ccc(-c3cc(C(=O)NC[C@H]4CC[C@H](CNC(=O)OCC5CCOC5)CC4)c4ccccc4n3)cn2)CC1 (stereo partly drawn) [Example 126, Tetrahydrofuran-3-ylmethyl[(trans-4-{[({2-[6-(4-methylpiperazin-1-yl)pyridin-3-yl]quinolin-4-yl}carbonyl)amino]methyl}cyclohexyl)methyl]carbamate] |
| 880 nM | 3780 nM | CN1CCN(c2ccc(-c3cc(C(=O)NC[C@H]4CC[C@H](CNC(=O)OCC5CCCO5)CC4)c4ccccc4n3)cn2)CC1 (stereo partly drawn) [Example 127, Tetrahydrofuran-2-ylmethyl[(trans-4-{[({2-[6-(4-methylpiperazin-1-yl)pyridin-3-yl]quinolin-4-yl}carbonyl)amino]methyl}cyclohexyl)methyl]carbamate] |
| 2440 nM | 7940 nM | CN1CCN(c2ccc(-c3cc(C(=O)NC[C@H]4CC[C@H](CNC(=O)OCCn5cccn5)CC4)c4ccccc4n3)cn2)CC1 [Example 129, 2-(1H-Pyrazol-1-yl)ethyl-[(trans-4-{[({2-[6-(4-methylpiperazin-1-yl)pyridin-3-yl]quinolin-4-yl}carbonyl)amino]methyl}cyclohexyl)methyl]carbamate] |
| 440 nM | 1950 nM | CN1CCN(c2ccc(-c3cc(C(=O)NC[C@H]4CC[C@H](CNC(=O)OCc5nccs5)CC4)c4ccccc4n3)cn2)CC1 [Example 130, 1,3-Thiazol-2-ylmethyl-[(trans-4-{[({2-[6-(4-methylpiperazin-1-yl)pyridin-3-yl]quinolin-4-yl}carbonyl)amino]methyl}cyclohexyl)methyl]carbamate] |
| 1590 nM | 5250 nM | CN1CCN(c2ccc(-c3cc(C(=O)NC[C@H]4CC[C@H](CNC(=O)OCc5cnccn5)CC4)c4ccccc4n3)cn2)CC1 [Example 131, Pyrazin-2-ylmethyl-[(trans-4-{[({2-[6-(4-methylpiperazin-1-yl)pyridin-3-yl]quinolin-4-yl}carbonyl)amino]methyl}cyclohexyl)methyl]carbamate] |
| 1860 nM | 5760 nM | CN1CCN(c2ccc(-c3cc(C(=O)NC[C@H]4CC[C@H](CNC(=O)OCCC#N)CC4)c4ccccc4n3)cn2)CC1 [Example 132, 2-Cyanoethyl[(trans-4-{[({2-[6-(4-methylpiperazin-1-yl)pyridin-3-yl]quinolin-4-yl}carbonyl)amino]methyl}cyclohexyl)methyl]carbamate] |
| 130 nM | 350 nM | CC(C)(C)OC(=O)NC[C@H]1CC[C@H](CNC(=O)c2cc(-c3ccc(NCCCO)nc3)nc3ccccc23)CC1 [Example 150, tert-Butyl{[trans-4-({[(2-{6-[(3-hydroxypropyl)amino]pyridin-3-yl}quinolin-4-yl)carbonyl]amino}-methyl)cyclohexyl]methyl}carbamate] |
